Laboratory results as given in paper PMC7332124, “Design, One Pot Synthesis and Molecular Docking Studies of Substituted-1H-Pyrido[2,1-b] Quinazolines as Apoptosis-Inducing Anticancer Agents” (Asian Pacific Journal of Cancer Prevention : APJCP, 2020).

Key:
Type in all cases: cell-based, human
A549 cells = experiment: Mitochondrial membrane potential (JC-1, flow cytometry); conditions: 0.5-5 µM, 72 h
Experimental: The cyanine dye JC-1 (5,5′,6,6′-tetrachloro-1,1′,3,3′-tetraethylbenzimidazolylcarbocyanine iodide) is a cell-penetrating dye that facilitates discrimination of energized and de energized mitochondria thus, high mitochondrial potential shifts its emission fluorescence from green to red (Vundru et al., 2013).This phenomenon was assessed by flow cytometry (FACS). A549 cells (1.5x10^6 cells/ml) were seeded in 12 well plates and allowed to adhere for overnight. Then the cells were incubated with compound 4q at 0.5, 1, 2.5 and 5 µM concentrations for 72 h. Cells were collected and washed with PBS and resuspended in solution of JC- 1 (1 µM) and incubated for 30 min in incubator at 37 °C. The cells were washed twice with PBS and cells were trypsinized, centrifuged and 10,000 events were analyzed by flow cytometer (BD FACSVerse™, USA).

HT-29 [1] = experiment: Cell growth inhibition assay (MTT, day 0 subtracted); conditions: Homo sapiens, 72 h, read-out: In vitro Growth Inhibitory Concentration (GI50)
Experimental: (§1) Various cancer cells were used to screen anticancer activity of newly synthesized compounds. Lung (A549 and NCI-H460), colon (HCT-15 and HT-29), prostate (DU-145) cancer cells maintained in RPMI-1640 media while normal lung fibroblasts cell line (HFL-1) were maintained in F-12 k medium supplemented with 10% fetal bovine serum (FBS) with 1% antibiotic-antimycotic solution (Sigma). Cells were maintained in 5% CO2 with 98% relative humidity at 37 °C in incubator. When 80-90% of confluency is reached, they were sub-cultured using 0.25% trypsin/1 mM EDTA solution for further passage. The compounds in this series were dissolved in DMSO (1 %) to prepare the stock solution of 10 mM. Further dilutions were made accordingly with respective media to obtain the required concentrations.
(§2) Briefly, the cells were seeded on to a 96-well plate in 100 µl of medium. Following 24 h MTT reagent was added in few wells and day 0 absorbance was analyzed, and then cells were treated with compounds and incubated for an additional 72 h. After the treatment, 100 µl of MTT (0.5 mg/ml) was added and incubated at 37 °C for 4 h. Then MTT reagent was suctioned, the insoluble formazan crystals were dissolved in DMSO and formazan product formed is measured at 570 nm wavelength. The day 0 absorbance was subtracted from the 72 h incubated plates and data were plotted as a percentage of untreated control (Dai et al., 2011).

NCI-H460 [2] = experiment: as above; conditions: Homo sapiens, 72 h, read-out: In vitro Growth Inhibitory Concentration (GI50)
Experimental: as §1, §2

HCT-15 = experiment: as above; conditions: Homo sapiens, 72 h, read-out: In vitro Growth Inhibitory Concentration (GI50)
Experimental: as §1, §2

[3] = test system: HFL-1 normal lung fibroblasts; experiment: as above; conditions: Homo sapiens, HFL1, 72 h, read-out: In vitro Growth Inhibitory Concentration (GI50)
Experimental: as §1, §2

A549 [4] = experiment: as above; conditions: Homo sapiens, 72 h, read-out: In vitro Growth Inhibitory Concentration (GI50)
Experimental: as §1, §2

DU-145 = experiment: as above; conditions: Homo sapiens, 72 h, read-out: In vitro Growth Inhibitory Concentration (GI50)
Experimental: as §1, §2

HT-29 [5] = experiment: MTT cytotoxicity assay; conditions: Homo sapiens, HT-29 colorectal cancer, 72 h, read-out: In vitro Inhibitory Concentration (IC50)
Experimental: as §1
(§3) MTT assay measures the reduction of MTT (3-(4,5-dimethylthiazol- 2-yl)-2,5-diphenyl tetrazolium bromide) by mitochondrial succinate dehydrogenase enzyme to insoluble formazan crystals. Since reduction of MTT occurs only in metabolically active cells, the level of activity is the measure of the viability of the cells.(Pordeli et al., 2017). Briefly, cells were plated in 96-well plates at a density of 3,000 to 6,000 cells per well in 100 µl of complete medium and allowed to grow overnight. Then the cells were treated with different concentrations of the synthesized compounds and incubated for 72 h. After the treatment, 100 µl of MTT (0.5 mg/ml) was added and incubated at 37 °C for 4 h. Then MTT reagent was aspirated and formazan crystals formed were dissolved by the addition of 200 µL of DMSO for 20 min at 37 °C. The formazan product quantity was measured by using a spectrophotometric microtiter plate reader (Spectra Max, M4 Molecular devices, USA) at 570 nm wavelength(Nekkanti et al., 2017).

NCI-H460 [6] = experiment: MTT cytotoxicity assay; conditions: Homo sapiens, NCI-H460 lung carcinoma, 72 h, read-out: In vitro Inhibitory Concentration (IC50)
Experimental: as §1, §3

A549 [7] = experiment: MTT cytotoxicity assay
Experimental: as §1, §3

C1=CC2=NC3=C(CCCC3)C(c3cn(Cc4ccccc4)c4ccccc34)N2C=C1 (centres unmarked) [Compound 4i, 11-(1-benzyl-1H-indol-3-yl)-2,3,4, 11-tetrahydro-1H-pyrido [2,1-b] quinazoline]
mitochondrial membrane potential (ΔΨm) (A549 cells): significant collapse in the ΔΨm
GI50 (HT-29 [1]): 5.98 ± 0.18 µM
GI50 (NCI-H460 [2]): 3.24 ± 0.4 µM
GI50 (HCT-15): 6.27 ± 0.19 µM
GI50 [3]: 4.54 ± 0.59 µM
GI50 (A549 [4]): 2.7 ± 0.18 µM
GI50 (DU-145): 9.64 ± 0.37 µM
IC50 (HT-29 [5]): 11.57 ± 0.04 µM
IC50 (NCI-H460 [6]): 5.53 ± 0.49 µM
IC50 (A549 [7]; Homo sapiens, A549 adenocarcinoma (lung), MTT, 72 h, read-out: In vitro Inhibitory Concentration (IC50)): 4.57 ± 0.25 µM
selectivity towards the cancer cells (A549 [7]; IC50 in HFL-1 normal fibroblasts versus lung cancer cells): approximately 2 fold
